Measured values published in PubChem BioAssay AID1918942 (Molecular Pharmacology Branch, DTP, NCI, 2023).

Tested on: 743489-274-T-PDC complex spheroid viability
Assay: Anticancer human tumor 743489-274-T-PDC patient-derived renal cell carcinoma cell line growth inhibition
Details: for IC50: curve of first compound; for viability, T/C: stronger effect = lower value
Method in brief: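 Complex spheroids of tumor cells with HUVEC and human MSCs, exposed to iadademstat combined with other agents. Each agent tested in half-log steps from near clinical Cmax (else 10 microM top), DMSO ≤0.25%.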

[1] = second compound 0.1 µM, first compound 0.00316 µM
[2] = second compound 0.1 µM, first compound 0.01 µM
[3] = second compound 0.1 µM, first compound 0.0316 µM
[4] = second compound 0.1 µM, first compound 0.1 µM
[5] = second compound 0.1 µM, first compound 0.316 µM
[6] = second compound 0.1 µM, first compound 1 µM
[7] = second compound 0.316 µM, first compound 0.00316 µM
[8] = second compound 0.316 µM, first compound 0.01 µM
[9] = second compound 0.316 µM, first compound 0.0316 µM
[10] = second compound 0.316 µM, first compound 0.1 µM
[11] = second compound 0.316 µM, first compound 0.316 µM
[12] = second compound 0.316 µM, first compound 1 µM
[13] = second compound 1 µM, first compound 0.00316 µM
[14] = second compound 1 µM, first compound 0.01 µM
[15] = second compound 1 µM, first compound 0.0316 µM
[16] = second compound 1 µM, first compound 0.1 µM
[17] = second compound 1 µM, first compound 0.316 µM
[18] = second compound 1 µM, first compound 1 µM
[19] = second compound 3.16 µM, first compound 0.00316 µM
[20] = second compound 3.16 µM, first compound 0.01 µM
[21] = second compound 3.16 µM, first compound 0.0316 µM
[22] = second compound 3.16 µM, first compound 0.1 µM
[23] = second compound 3.16 µM, first compound 0.316 µM
[24] = second compound 3.16 µM, first compound 1 µM
[25] = second compound 10 µM, first compound 0.00316 µM
[26] = second compound 10 µM, first compound 0.01 µM
[27] = second compound 10 µM, first compound 0.0316 µM
[28] = second compound 10 µM, first compound 0.1 µM
[29] = second compound 10 µM, first compound 0.316 µM
[30] = second compound 10 µM, first compound 1 µM
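Note: spheroids exposed to compounds for 7 days before readout.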
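Throughout, for viability, T/C: 100% = DMSO vehicle control wells.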

## O=C(C=Cn1cnc(-c2cc(C(F)(F)F)cc(C(F)(F)F)c2)n1)NNc1cnccn1 + NC1CC1c1ccc(-c2cccc(O)c2)cc1
Second compound 0.1 µM
  IC50: > 1000 nM
Second compound 0.316 µM
  IC50: > 1000 nM
Second compound 1 µM
  IC50: > 1000 nM
Second compound 3.16 µM
  IC50: > 1000 nM
Second compound 10 µM
  IC50: > 1000 nM
[1]
  viability, T/C: 97.6%
[2]
  viability, T/C: 103%
[3]
  viability, T/C: 113%
[4]
  viability, T/C: 85.8%
[5]
  viability, T/C: 97.9%
[6]
  viability, T/C: 86.2%
[7]
  viability, T/C: 102%
[8]
  viability, T/C: 99.8%
[9]
  viability, T/C: 108%
[10]
  viability, T/C: 99.6%
[11]
  viability, T/C: 76.4%
[12]
  viability, T/C: 74.6%
[13]
  viability, T/C: 99.1%
[14]
  viability, T/C: 103%
[15]
  viability, T/C: 118%
[16]
  viability, T/C: 88%
[17]
  viability, T/C: 89.4%
[18]
  viability, T/C: 67.4%
[19]
  viability, T/C: 98.7%
[20]
  viability, T/C: 105%
[21]
  viability, T/C: 119%
[22]
  viability, T/C: 91.3%
[23]
  viability, T/C: 74.6%
[24]
  viability, T/C: 69.5%
[25]
  viability, T/C: 96.2%
[26]
  viability, T/C: 101%
[27]
  viability, T/C: 102%
[28]
  viability, T/C: 98.6%
[29]
  viability, T/C: 86.1%
[30]
  viability, T/C: 57.4%

## COc1cc(C2c3cc4c(cc3C(OC3OC5COC(C)OC5C(O)C3O)C3COC(=O)C23)OCO4)cc(OC)c1O (stereo not given) + NC1CCC(NC2CC2c2ccccc2)CC1
Second compound 0.1 µM
  IC50: > 3000 nM
Second compound 0.316 µM
  IC50: > 3000 nM
Second compound 1 µM
  IC50: > 3000 nM
Second compound 3.16 µM
  IC50: > 3000 nM
Second compound 10 µM
  IC50: > 3000 nM
Second compound 0.1 µM, first compound 0.00949 µM
  viability, T/C: 108%
Second compound 0.1 µM, first compound 0.03 µM
  viability, T/C: 119%
Second compound 0.1 µM, first compound 0.0949 µM
  viability, T/C: 112%
Second compound 0.1 µM, first compound 0.3 µM
  viability, T/C: 96.6%
Second compound 0.1 µM, first compound 0.949 µM
  viability, T/C: 106%
Second compound 0.1 µM, first compound 3 µM
  viability, T/C: 85.7%
Second compound 0.316 µM, first compound 0.00949 µM
  viability, T/C: 105%
Second compound 0.316 µM, first compound 0.03 µM
  viability, T/C: 105%
Second compound 0.316 µM, first compound 0.0949 µM
  viability, T/C: 97.8%
Second compound 0.316 µM, first compound 0.3 µM
  viability, T/C: 94.8%
Second compound 0.316 µM, first compound 0.949 µM
  viability, T/C: 91.7%
Second compound 0.316 µM, first compound 3 µM
  viability, T/C: 95.3%
Second compound 1 µM, first compound 0.00949 µM
  viability, T/C: 118%
Second compound 1 µM, first compound 0.03 µM
  viability, T/C: 121%
Second compound 1 µM, first compound 0.0949 µM
  viability, T/C: 117%
Second compound 1 µM, first compound 0.3 µM
  viability, T/C: 110%
Second compound 1 µM, first compound 0.949 µM
  viability, T/C: 93.2%
Second compound 1 µM, first compound 3 µM
  viability, T/C: 97.9%
Second compound 3.16 µM, first compound 0.00949 µM
  viability, T/C: 125%
Second compound 3.16 µM, first compound 0.03 µM
  viability, T/C: 113%
Second compound 3.16 µM, first compound 0.0949 µM
  viability, T/C: 115%
Second compound 3.16 µM, first compound 0.3 µM
  viability, T/C: 110%
Second compound 3.16 µM, first compound 0.949 µM
  viability, T/C: 99%
Second compound 3.16 µM, first compound 3 µM
  viability, T/C: 87.9%
Second compound 10 µM, first compound 0.00949 µM
  viability, T/C: 117%
Second compound 10 µM, first compound 0.03 µM
  viability, T/C: 115%
Second compound 10 µM, first compound 0.0949 µM
  viability, T/C: 112%
Second compound 10 µM, first compound 0.3 µM
  viability, T/C: 111%
Second compound 10 µM, first compound 0.949 µM
  viability, T/C: 98.6%
Second compound 10 µM, first compound 3 µM
  viability, T/C: 111%

## Nc1ncn(C2CC(O)C(CO)O2)c(=O)n1 (stereo not given) + NC1CCC(NC2CC2c2ccccc2)CC1
Second compound 0.1 µM
  IC50: > 1000 nM
Second compound 0.316 µM
  IC50: > 1000 nM
Second compound 1 µM
  IC50: > 1000 nM
Second compound 3.16 µM
  IC50: > 1000 nM
Second compound 10 µM
  IC50: > 1000 nM
[1]
  viability, T/C: 107%
[2]
  viability, T/C: 113%
[3]
  viability, T/C: 110%
[4]
  viability, T/C: 109%
[5]
  viability, T/C: 105%
[6]
  viability, T/C: 105%
[7]
  viability, T/C: 122%
[8]
  viability, T/C: 119%
[9]
  viability, T/C: 107%
[10]
  viability, T/C: 107%
[11]
  viability, T/C: 98%
[12]
  viability, T/C: 98.4%
[13]
  viability, T/C: 107%
[14]
  viability, T/C: 113%
[15]
  viability, T/C: 114%
[16]
  viability, T/C: 92%
[17]
  viability, T/C: 105%
[18]
  viability, T/C: 105%
[19]
  viability, T/C: 127%
[20]
  viability, T/C: 122%
[21]
  viability, T/C: 108%
[22]
  viability, T/C: 95.9%
[23]
  viability, T/C: 94%
[24]
  viability, T/C: 97.8%
[25]
  viability, T/C: 104%
[26]
  viability, T/C: 122%
[27]
  viability, T/C: 131%
[28]
  viability, T/C: 97.2%
[29]
  viability, T/C: 103%
[30]
  viability, T/C: 97.3%
